We go through 19 compounds from article PMC6254286, “Quantitative Structure − Antiprotozoal Activity Relationships of Sesquiterpene Lactones ^†” (Molecules, 2009).

Data set [1] can be described thus: in vitro. To be noted: rat; for IC50: IC50 Cytotoxicity (L6), L6 rat skeletal myoblasts, 72 h, mean of two independent measurements. The method, then:
(§1) Trypanosoma brucei rhodesiense and cytotoxicity against L6 cells. Minimum Essential Medium with Earle’s salts (50 µL) supplemented with 0.2 mM 2-mercapto-ethanol, 1 mM Na-pyruvate and 15% heat-inactivated horse serum was added to each well of a 96-well microtiter plate. […] Then 10^4 bloodstream forms of Trypanosoma brucei rhodesiense STIB 900 in 50 µL of medium were added to each well and the plate incubated at 37°C under a 5% CO2 atmosphere for 72 hours. […] The plate was then read in a Spectramax Gemini XS microplate fluorometer (Molecular Devices Corporation, Sunnyvale, CA, USA) using an excitation wavelength of 536 nm and emission wavelength of 588 nm. Fluorescence development was measured and expressed as percentage of the control. Data were transferred into the graphic programme Softmax Pro (Molecular Devices) which calculated IC50 values. Cytotoxicity was assessed using a similar protocol and rat skeletal myoblasts (L6 cells). […] All following steps were according to the T. b. rhodesiense protocol.

Data set [2] concerns rat skeletal myoblasts (L6 cells). The data set is described as follows: Cytotoxicity against L6 cells (Alamar blue). As for the experimental part: as §1
For data set [3], the system named is T. cruzi Tulahuen strain C2C4. The data set is described as follows: In vitro activity against T. cruzi in L-6 host cells (beta-galactosidase/CPRG). Format: cell-based, Trypanosoma cruzi. To be noted: Tulahuen C2C4 in L-6 cells, 96 h, mean of two independent measurements, read-out: IC50 T. cruzi (Tcr). The method, then: Trypanosoma cruzi. Rat skeletal myoblasts (L-6 cells) were seeded in 96-well microtiter plates at 2,000 cells/well in 100 µL RPMI 1640 medium with 10% FBS (fetal bovine serum) and 2 mM L-glutamine. After 24 hours the medium was removed and replaced by 100 µL per well containing 5,000 trypomastigote forms of T. cruzi Tulahuen strain C2C4 containing the β-galactosidase (Lac Z) gene. Fortyeight hours later the medium was removed from the wells and replaced by […] fresh medium with or without a serial drug dilution. Seven 3-fold dilutions were used covering a range from […]. Each drug was tested in duplicate. After 96 hours of incubation the plates were inspected under an inverted microscope to assure growth of the controls and sterility. Then the substrate CPRG/ Nonidet (50 µL) was added to all wells. A colour reaction developed within 2-6 hours and could be read photometrically at 540 nm.

Data set [4] deals with Trypanosoma brucei rhodesiense STIB 900. The data set is described as follows: In vitro activity against T. brucei rhodesiense bloodstream forms (Alamar blue). The class given is cell-based. The note with it: for IC50: bloodstream forms STIB 900, 72 h, mean of two independent measurements, read-out: IC50 T. brucei rhodes. (Tbr). The method, then:
as §1

Data set [5] concerns Leishmania donovani amastigotes (strain MHOM/ET/67/L82). Description: L. donovani axenic amastigote assay (resazurin). Format: cell-based. The note with it: for IC50: pH 5.4, 72 h, mean of two independent measurements, read-out: IC50 L. donovani (Ldon). As for the experimental part:
Leishmania donovani (axenic amastigote assay). […] Serial drug dilutions in duplicates were prepared covering a range from 30 to 0.041 µg/mL. […] The compounds used as positive controls in the various bioassays (see Table 1) were of commercial origin, with the exception of melarsoprol, which was a gift from WHO. Their purity (generally > 95%) was specified by the manufacturers.
(The colour change of resazurin is a common sign of viable cells or microbes.)

In data set [6] the test system is K1 strain of P. falciparum. The data set is described as follows: Antiplasmodial [3H]-hypoxanthine incorporation assay. Format: cell-based, Plasmodium falciparum. The method, then:
Plasmodium falciparum. Antiplasmodial activity was determined using the K1 strain of P. falciparum (resistant to chloroquine and pyrimethamine). A modification of the [3H]-hypoxanthine incorporation assay was used. Briefly, infected human red blood cells (final parasitaemia and haematocrit were 0.3% and 1.25%, respectively) in RPMI 1640 medium with 5% Albumax were exposed to serial drug dilutions in microtiter plates. After 48 hours of incubation at 37°C in a reduced oxygen atmosphere, 0.5 mCi 3H-hypoxanthine was added to each well. Cultures were incubated for a further 24 h before they were harvested onto glass-fiber filters and washed with distilled water. The radioactivity was counted using a BetaplateTM liquid scintillation counter (Wallac, Zurich, Switzerland). […] From the sigmoidal inhibition curves IC50 values were calculated. Assays were run in duplicate and repeated once.

Where [7] appears, read: protozoa, especially Tbr, versus L6 mammalian cells.
[8] abbreviates: Trypanosoma cruzi, TULAHUEN, L6, 96 h.
Setting [9] is: Leishmania donovani, 72 h, pH 5.4, axenic amastigotes.
[10] abbreviates: L6 cells (rat skeletal myoblasts).
[11] abbreviates: Plasmodium falciparum, K1, K1 strain (resistant to chloroquine and pyrimethamine), mean of two independent measurements, read-out: IC50 P. falciparum (Pfc).

Structures are written as SMILES. Like-named read-outs stand apart in the source and are kept apart here. Where only a bound is given, the exact number is not on record here.

Turning to `C=C1C(=O)OC2CC3(C)CCCC(=C)C3CC12` (stereo not drawn) [Compound 25], in data set [1], the 50% inhibitory concentration (IC50) (usually the midpoint of a concentration-inhibition curve) at 72 h was found to be 4.48 µM. Moreover, in data set [2] (setting [7]), the “antiparasitic activity compared with cytotoxicity (in words)” value was “considerably more toxic against the mammalian cells than against the protozoa”. Also, the IC50 was 22.3 µM in data set [3] (setting [8]); 23.6 µM in data set [4] (Trypanosoma brucei, 72 h); over 14 µM in data set [5] (setting [9]).
Take `C=C1C(=O)OC2CC(C)C(C=CC(C)=O)=CCC12` (stereo not drawn) [Compound 18]: the IC50 at 72 h in data set [1] (setting [10]) was found to be 30.2 µM. In addition, in data set [2], the “antiparasitic activity compared with cytotoxicity (in words)” value is recorded as “significantly higher levels of antiparasitic activity, especially against Tbr, than cytotoxicity”. Also, the IC50 was 26.2 µM in data set [3] (Trypanosoma cruzi, L6); 7.83 µM in data set [6] (setting [11]); 2.92 µM in data set [4] (Trypanosoma brucei, 72 h); 17.6 µM in data set [5] (setting [9]).
`C=C1C(=O)OC2CC(C)C3(C=CC(C)=O)OC3CC12` (stereo not drawn) [Compound 19, 8-epixanthatin-1,5-epoxide] registered an IC50 at 72 h in data set [1] (setting [10]) of 22.1 µM. The “antiparasitic activity compared with cytotoxicity (in words)” value in data set [2] (setting [7]) is given as “significantly higher levels of antiparasitic activity, especially against Tbr, than cytotoxicity”. The IC50 in data set [3] (setting [8]) is 11.3 µM; in data set [6] (setting [11]), 6.51 µM; in data set [4] (Trypanosoma brucei, 72 h), 0.33 µM; in data set [5] (setting [9]) it was 0.599 µM. For the same compound, the “selectivity index (SI) with respect to Tbr” value in data set [4] (ratio of cytotoxic IC50 (L6) over IC50 against Tbr) came out at 67. Moreover, the “selectivity index (SI) with respect to Ldon” value in data set [5] (ratio of cytotoxic IC50 (L6) over IC50 against Ldon) turned out to be 36.
In data set [1] (setting [10]), `C=C(C(=O)OC1CC(C)=CCCC(CO)=CC2OC(=O)C(=C)C21)C(O)CO` (stereo not drawn) [Compound 33] showed an IC50 at 72 h of 10.2 µM. The IC50 came out at 16.8 µM in data set [3] (setting [8]); 6.32 µM in data set [6] (setting [11]); 1.3 µM in data set [4] (Trypanosoma brucei, 72 h); 15.2 µM in data set [5] (setting [9]).
In the case of `C=C1C(=O)OC2CC3(C)CC(O)CC(=C)C3CC12` (stereo not drawn) [Compound 26], half-maximal inhibition in data set [1] (setting [10]) (IC50 at 72 h) was put at 0.948 µM. For the same compound, in data set [2] (setting [7]), the “antiparasitic activity compared with cytotoxicity (in words)” value is “considerably more toxic against the mammalian cells than against the protozoa”. Besides, the IC50 in data set [3] (setting [8]) was 24.8 µM; in data set [4] (Trypanosoma brucei, 72 h), 7.8 µM; in data set [5] (setting [9]), over 4 µM.
Take `C=C1C(=O)OC2CC(C)C(CCC(C)=O)=CCC12` (stereo not drawn) [Compound 17]: in data set [1] (setting [10]), the IC50 at 72 h is 179 µM. The IC50 in data set [3] (setting [8]) is over 120 µM; in data set [6] (setting [11]) it was over 20 µM; in data set [4] (Trypanosoma brucei, 72 h), 62.1 µM; in data set [5] (setting [9]), 23.8 µM.
The corresponding values for `C=C1C(=O)OC2CC(C)C3(O)C=C(C(C)=O)C4(CC3CC12)C(=O)OC1CC(C)C2(C=CC(C)=O)OC2CC14` (stereo not drawn) [Compound 22] are 13.3 µM, 95.4 µM, 6.53 µM, 1.29 µM and 26.9 µM.
For `C=C1C(=O)OC2CC(C)C3C(OC(C)=O)CC(O)C3(COC(C)=O)CC12` (stereo not drawn) [Compound 16], in that order: 21.6 µM, 44.9 µM, 10.7 µM, 13.6 µM and 11.8 µM.
`C=C1C(=O)OC2CC3(C)CCCC(C)C3=CC12` (stereo not drawn) [Compound 29] showed an IC50 at 72 h in data set [1] of 5.99 µM. The IC50 was found to be 8.3 µM in data set [3] (setting [8]); 6.4 µM in data set [6] (setting [11]); 2.62 µM in data set [4] (Trypanosoma brucei, 72 h); 3.03 µM in data set [5] (setting [9]).
Consider `C=C1C(=O)OC2CC(C)C3C=CC(=O)C3(C)C(OC(=O)CC(C)C)C12` (stereo not drawn) [Compound 4], for which the IC50 in data set [1] turned out to be 1.3 µM; in data set [3] (Trypanosoma cruzi, L6), 2.48 µM; in data set [6] (Plasmodium falciparum, K1, read-out: IC50 P. falciparum (Pfc)), 0.822 µM; in data set [4] (Trypanosoma brucei, 72 h), 0.116 µM; in data set [5] (Leishmania donovani, axenic amastigotes), 0.871 µM.
In the case of `C=C1C(=O)OC2CC(C)C3(O)C=C(C(C)=O)C4(CC3CC12)C(=O)OC1CC(C)C(C=CC(C)=O)=CCC14` (stereo not drawn) [Compound 21], the IC50 at 72 h in data set [1] (setting [10]) was found to be 9.43 µM. Besides, the IC50 in data set [3] (setting [8]) was 16.1 µM; in data set [6] (setting [11]), 4.96 µM; in data set [4] (Trypanosoma brucei, 72 h) it was 0.638 µM; in data set [5] (setting [9]), 22 µM.
In the case of `C=C1C(=O)OC2CC(C)C3C(OC(C)=O)CC(O)C3(C)CC12` (stereo not drawn) [Compound 10], the IC50 came out at 4.39 µM in data set [1]; 20.4 µM in data set [3] (setting [8]); 6.46 µM in data set [6] (setting [11]); 6.71 µM in data set [4] (Trypanosoma brucei, 72 h); 12.2 µM in data set [5] (setting [9]).
`C=C1C(=O)OC2C=C(C)CCC3OC3(COC(C)=O)CC(OC(=O)C3(C)OC3C)C12` (stereo not drawn) [Compound 37] had a 50% inhibitory concentration (IC50) at 72 h in data set [1] (setting [10]) of 7.75 µM. For the same compound, the half-inhibitory concentration (IC50) in data set [3] (setting [8]) was found to be 15.8 µM; in data set [6] (setting [11]), 6.33 µM; in data set [4] (Trypanosoma brucei, 72 h), 0.478 µM; in data set [5] (setting [9]) it was 5.19 µM.
The corresponding values for `CC1=CCCC2(C)OC2C2OC(=O)C(C)C2CC1` (stereo not drawn) [Compound 35] are 133 µM, over 120 µM, over 20 µM, 49 µM and 35.6 µM.
For the compound `C=C1C(=O)OC2CC(C)C3C(OC(C)=O)CC(OC(C)=O)C3(C)CC12` (stereo not drawn) [Compound 14], inhibition in data set [1] (setting [10]) was half-maximal at 8.43 µM (IC50 at 72 h). For the same compound, the IC50 came out at 14.7 µM in data set [3] (setting [8]); 8.94 µM in data set [6] (setting [11]); 1.17 µM in data set [4] (Trypanosoma brucei, 72 h); 4.26 µM in data set [5] (setting [9]).
As to `C=C1C(=O)OC2C=C(C)C(O)CC3OC3(COC(C)=O)CC(OC(=O)C(C)=CC)C12` (stereo not drawn) [Compound 40], the IC50 in data set [1] was 6.67 µM; in data set [3] (setting [8]), 11.8 µM; in data set [6] (setting [11]), 6.64 µM; in data set [4] (Trypanosoma brucei, 72 h), 0.698 µM; in data set [5] (setting [9]), 17.1 µM.
For `C=C1C(=O)OC2CC(C)C3C(OC(C)=O)CC(O)C3(C)C(OC(C)=O)C12` (stereo not drawn) [Compound 15], in that order: 7.28 µM, 16.3 µM, 5.98 µM, 3.96 µM and 8.68 µM.
On to `C=C1C(=O)OC2C1CCC1(C)C(O)CCC(=C)C21` (stereo not drawn) [Compound 32], for which the IC50 was 25.6 µM in data set [2] (read-out: IC50 Cytotoxicity (L6), L6 rat skeletal myoblasts, 72 h, mean of two independent measurements); 26.2 µM in data set [3]; 13.6 µM in data set [6] (K1 strain (resistant to chloroquine and pyrimethamine), mean of two independent measurements, read-out: IC50 P. falciparum (Pfc)); 1.11 µM in data set [4]; 7.34 µM in data set [5] (axenic amastigotes).
In data set [1] (setting [10]), `C=C1C(=O)O[C@H]2[C@H]1CC/C(C)=C/CC[C@@]1(C)O[C@@H]21` [Compound 34, parthenolide] had an IC50 at 72 h of 7.24 µM. In addition, the IC50 in data set [3] (setting [8]) was determined as 10.7 µM; in data set [6] (setting [11]), 11.9 µM; in data set [4] (Trypanosoma brucei, 72 h), 0.388 µM; in data set [5] (setting [9]), 3.56 µM.
